Data as given in patent US20240050428A1 (Cullgen (Shanghai), Inc., priority 2020, published 2024).
Where two headings read alike, the source gives them in different places.

Experiments:
MV4;11 cells = assay: Cell viability assay (CellTiter-Glo) in MV4;11 cells, alone or with gilteritinib; assay type: cell-based; settings: Homo sapiens, MV4;11 cells, CellTiter-Glo, read-out: MV4
MOLM-13 cells = assay: Cell viability assay (CellTiter-Glo) in MOLM-13 cells, alone or with gilteritinib; assay type: cell-based; settings: Homo sapiens, MOLM-13 cells, CellTiter-Glo
[1] = MV4-11, 72 h, compound alone (without gilteritinib), three days, 11 IC50
[2] = MV4-11, 72 h, compound with gilteritinib 10 nM, three days, 11 IC50 gilteritinib
[3] = MOLM-13, 72 h, compound alone (without gilteritinib), three days, read-out: MOLM-13 IC50
[4] = MOLM-13, 72 h, compound with gilteritinib 20 nM, three days, read-out: MOLM-13 IC50 gilteritinib
[5] = MV4-11, 72 h, with gilteritinib 10 nM, three days, 11 IC50 gilteritinib
[6] = MOLM-13, 72 h, with gilteritinib 20 nM, three days, read-out: MOLM-13 IC50 gilteritinib
[7] = 72 h, compound alone (without gilteritinib), three days, 11 IC50
[8] = 72 h, compound alone (without gilteritinib), three days, read-out: MOLM-13 IC50
[9] = MV4-11, 72 h, with 10 nM gilteritinib, 3 days, 11 IC50 gilteritinib
[10] = MV4-11, 72 h, without gilteritinib, 3 days, 11 IC50
[11] = MOLM-13, 72 h, with 20 nM gilteritinib, 3 days, read-out: MOLM-13 IC50 gilteritinib
[12] = MOLM-13, 72 h, without gilteritinib, 3 days, read-out: MOLM-13 IC50

SMILES	IC50 (MV4;11 cells; [1]) [µM]	IC50 (MOLM-13 cells; [3]) [µM]	IC50 (MV4;11 cells; [5]) [µM]	IC50 (MOLM-13 cells; [6]) [µM]	further results
Cc1nn(CCCCCCNc2ccc3c(c2)C(=O)N(C2CCC(=O)NC2=O)C3=O)c(C)c1-c1ccc2ccccc2n1 (stereo not shown) [GS-549, 5-((6-(3,5-Dimethyl-4-(quinolin-2-yl)-1H-pyrazol-1-yl)hexyl)amino)-2-(2,6-dioxopiperidin-3-yl)isoindoline-1,3-dione]	0.1 to 1	0.1 to 1			IC50 (MV4;11 cells; [2]): 0.01 to 0.1 µM; IC50 (MOLM-13 cells; [4]): < 0.01 µM
O=C1CCC(N2C(=O)c3ccc(NCCC[C@H]4C[C@H](n5cc(-c6cccc(N7CCC(O)CC7)n6)cn5)C4)cc3C2=O)C(=O)N1 (stereo partly drawn) [GS-252, 2-(2,6-Dioxopiperidin-3-yl)-5-((3-(trans-3-(4-(6-(4-hydroxypiperidin-1-yl)pyridin-2-yl)-1H-pyrazol-1-yl)cyclobutyl)propyl)amino)isoindoline-1,3-dione]	0.1 to 1	> 1	> 1	> 1	
O=C1CCC(N2C(=O)c3ccc(NCCC[C@H]4C[C@H](n5cc(-c6cccc(N7CCOCC7)c6)cn5)C4)cc3C2=O)C(=O)N1 (stereo partly drawn) [GS-241, 2-(2,6-Dioxopiperidin-3-yl)-5-((3-(trans-3-(4-(3-morpholinophenyl)-1H-pyrazol-1-yl)cyclobutyl)propyl)amino)isoindoline-1,3-dione]	0.1 to 1	> 1	0.1 to 1	0.1 to 1	
O=C1CCC(N2C(=O)c3ccc(NC[C@H]4C[C@H](n5cc(-c6ccncc6)c(C6CC6)n5)C4)cc3C2=O)C(=O)N1 (stereo partly drawn) [GS-265, 5-(((trans-3-(3-Cyclopropyl-4-(pyridin-4-yl)-1H-pyrazol-1-yl)cyclobutyl)methyl)amino)-2-(2,6-dioxopiperidin-3-yl)isoindoline-1,3-dione]	> 1	> 1	0.1 to 1	0.1 to 1	
O=C1CCC(N2C(=O)c3ccc(NCCCCC(=O)N4CCC(c5ccccc5)CC4)cc3C2=O)C(=O)N1 (stereo not shown) [GS-147, 2-(2,6-Dioxopiperidin-3-yl)-5-((5-oxo-5-(4-phenylpiperidin-1-yl)pentyl)amino)isoindoline-1,3-dione]					IC50 (MV4;11 cells; [7]): > 1 µM; IC50 (MV4;11 cells; 72 h, with gilteritinib 10 nM, three days, 11 IC50 gilteritinib): 0.1 to 1 µM; IC50 (MOLM-13 cells; [8]): > 1 µM; IC50 (MOLM-13 cells; 72 h, with gilteritinib 20 nM, three days, read-out: MOLM-13 IC50 gilteritinib): 0.01 to 0.1 µM
CN(Cc1ccc2c(c1)CN(C1CCC(=O)NC1=O)C2=O)C(=O)CCCC(=O)N1CCC(n2cc(-c3cnc4cccc(Br)c4n3)cn2)CC1 (stereo not shown) [GS-058, 5-(4-(4-(8-Bromoquinoxalin-2-yl)-1H-pyrazol-1-yl)piperidin-1-yl)-N-((2-(2,6-dioxopiperidin-3-yl)-1-oxoisoindolin-5-yl)methyl)-N-methyl-5-oxopentanamide]	> 1	0.1 to 1	0.1 to 1	> 1	
O=C1CCC(N2C(=O)c3ccc(NCCCCCC(=O)N4CCCCC4)cc3C2=O)C(=O)N1 (stereo not shown) [GS-001, 2-(2,6-Dioxopiperidin-3-yl)-5-((6-oxo-6-(piperidin-1-yl)hexyl)amino)isoindoline-1,3-dione]					IC50 (MV4;11 cells; [9]): > 10 µM; IC50 (MV4;11 cells; [10]): 4.74 µM; IC50 (MOLM-13 cells; [11]): 0.027 µM; IC50 (MOLM-13 cells; [12]): 0.301 µM
COc1ccc2ncc(-c3cnn(CCCCCCNc4ccc5c(c4)C(=O)N(C4CCC(=O)NC4=O)C5=O)c3)nc2c1 (stereo not shown) [GS-387, 2-(2,6-Dioxopiperidin-3-yl)-5-((6-(4-(7-methoxyquinoxalin-2-yl)-1H-pyrazol-1-yl)hexyl)amino)isoindoline-1,3-dione]	0.1 to 1	0.1 to 1	0.01 to 0.1	< 0.01	
O=C1CCC(N2C(=O)c3ccc(NCCC[C@H]4C[C@H](n5cc(-c6cnc7ccc(N8CC9CCC(C8)N9)cc7n6)cn5)C4)cc3C2=O)C(=O)N1 (stereo partly drawn) [GS-215, 5-((3-(trans-3-(4-(7-(3,8-Diazabicyclo[3.2.1]octan-3-yl)quinoxalin-2-yl)-1H-pyrazol-1-yl)cyclobutyl)propyl)amino)-2-(2,6-dioxopiperidin-3-yl)isoindoline-1,3-dione]	0.1 to 1	0.1 to 1	0.01 to 0.1	< 0.01	
O=C1CCC(N2Cc3cc(OCCOCCC(=O)N4CCC(n5cc(-c6cnc7cccc(Br)c7n6)cn5)CC4)ccc3C2=O)C(=O)N1 (stereo not shown) [GS-018, 3-(5-(2-(3-(4-(4-(8-Bromoquinoxalin-2-yl)-1H-pyrazol-1-yl)piperidin-1-yl)-3-oxopropoxy)ethoxy)-1-oxoisoindolin-2-yl)piperidine-2,6-dione]					IC50 (MV4;11 cells; [9]): 0.0009 µM; IC50 (MV4;11 cells; [10]): 0.0087 µM; IC50 (MOLM-13 cells; [11]): 0.0016 µM; IC50 (MOLM-13 cells; [12]): 0.0156 µM
O=C1CCC(N2C(=O)c3ccc(NCCC[C@H]4C[C@@H](n5cc(-c6cnc7ccc(N8CCOCC8)cc7n6)cn5)C4)cc3C2=O)C(=O)N1 (stereo partly drawn) [GS-207, 2-(2,6-Dioxopiperidin-3-yl)-5-((3-(cis-3-(4-(7-morpholinoquinoxalin-2-yl)-1H-pyrazol-1-yl)cyclobutyl)propyl)amino)isoindoline-1,3-dione]	0.1 to 1	0.1 to 1	0.01 to 0.1	< 0.01	
O=C1CCC(N2C(=O)c3ccc(NCCCc4cccc(N5CCC(c6ccccc6)CC5)c4)cc3C2=O)C(=O)N1 (stereo not shown) [GS-504, 2-(2,6-Dioxopiperidin-3-yl)-5-((3-(3-(4-phenylpiperidin-1-yl)phenyl)propyl)amino)isoindoline-1,3-dione]					IC50 (MV4;11 cells; [7]): 0.1 to 1 µM; IC50 (MV4;11 cells; 72 h, compound with gilteritinib 10 nM, three days, 11 IC50 gilteritinib): 0.01 to 0.1 µM; IC50 (MOLM-13 cells; [8]): 0.1 to 1 µM; IC50 (MOLM-13 cells; 72 h, compound with gilteritinib 20 nM, three days, read-out: MOLM-13 IC50 gilteritinib): 0.01 to 0.1 µM
Cc1nn([C@H]2C[C@H](CCCNc3ccc4c(c3)C(=O)N(C3CCC(=O)N(C)C3=O)C4=O)C2)cc1-c1cnc2ccccc2n1 (stereo partly drawn) [GS-639, 2-(1-Methyl-2,6-dioxopiperidin-3-yl)-5-((3-(trans-3-(3-methyl-4-(quinoxalin-2-yl)-1H-pyrazol-1-yl)cyclobutyl)propyl)amino)isoindoline-1,3-dione]	> 1	> 1			IC50 (MV4;11 cells; [2]): > 1 µM; IC50 (MOLM-13 cells; [4]): > 1 µM

Further lines, with some results ahead:

IC50 (MV4;11 cells; [1]) [µM]	IC50 (MOLM-13 cells; [3]) [µM]	IC50 (MV4;11 cells; [5]) [µM]	IC50 (MOLM-13 cells; [6]) [µM]	SMILES	further results
0.1 to 1	0.1 to 1			COc1ccc(-c2cnn([C@H]3C[C@H](CCCNc4ccc5c(c4)C(=O)N(C4CCC(=O)NC4=O)C5=O)C3)c2)nc1 (stereo partly drawn) [GS-462, 2-(2,6-dioxopiperidin-3-yl)-5-((3-(trans-3-(4-(5-methoxypyridin-2-yl)-1H-pyrazol-1-yl)cyclobutyl)propyl)amino)isoindoline-1,3-dione]	IC50 (MV4;11 cells; [2]): 0.01 to 0.1 µM; IC50 (MOLM-13 cells; [4]): 0.01 to 0.1 µM
0.1 to 1	> 1	0.01 to 0.1	0.01 to 0.1	O=C1CCC(N2C(=O)c3ccc(NCCCCNC(=O)N4CCC(n5cc(-c6cnc7ccccc7n6)cn5)CC4)cc3C2=O)C(=O)N1 (stereo not shown) [GS-379, N-(4-((2-(2,6-Dioxopiperidin-3-yl)-1,3-dioxoisoindolin-5-yl)amino)butyl)-4-(4-(quinoxalin-2-yl)-1H-pyrazol-1-yl)piperidine-1-carboxamide]	
0.01 to 0.1	0.1 to 1			O=C1CCC(N2C(=O)c3ccc(NCCCCCCn4cc(-c5cnc6ccc(Br)cc6n5)cn4)cc3C2=O)C(=O)N1 (stereo not shown) [GS-503, 5-((6-(4-(7-Bromoquinoxalin-2-yl)-1H-pyrazol-1-yl)hexyl)amino)-2-(2,6-dioxopiperidin-3-yl)isoindoline-1,3-dione]	IC50 (MV4;11 cells; [2]): < 0.01 µM; IC50 (MOLM-13 cells; [4]): 0.01 to 0.1 µM
< 0.01	< 0.01	< 0.01	< 0.01	Cc1nn([C@H]2C[C@@H](CCCNc3ccc4c(c3)C(=O)N(C3CCC(=O)NC3=O)C4=O)C2)cc1-c1cnc2ccc(N3CCOCC3)cc2n1 (stereo partly drawn) [GS-221, 2-(2,6-Dioxopiperidin-3-yl)-5-((3-(cis-3-(3-methyl-4-(7-morpholinoquinoxalin-2-yl)-1H-pyrazol-1-yl)cyclobutyl)propyl)amino)isoindoline-1,3-dione]	
0.01 to 0.1	0.01 to 0.1	< 0.01	< 0.01	O=C1CCC(N2C(=O)c3ccc(NC[C@H]4C[C@H](n5cc(-c6ccc7c(n6)CCCC7)c(C6CC6)n5)C4)cc3C2=O)C(=O)N1 (stereo partly drawn) [GS-308, 5-(((trans-3-(3-Cyclopropyl-4-(5,6,7,8-tetrahydroquinolin-2-yl)-1H-pyrazol-1-yl)cyclobutyl)methyl)amino)-2-(2,6-dioxopiperidin-3-yl)isoindoline-1,3-dione]	
0.01 to 0.1	0.01 to 0.1	< 0.01	< 0.01	O=C1CCC(N2C(=O)c3ccc(NCCC[C@H]4C[C@@H](n5cc(-c6cnc7ccc(C8CCNCC8)cc7n6)c(C6CC6)n5)C4)cc3C2=O)C(=O)N1 (stereo partly drawn) [GS-231, 5-((3-(cis-3-(3-Cyclopropyl-4-(7-(piperidin-4-yl)quinoxalin-2-yl)-1H-pyrazol-1-yl)cyclobutyl)propyl)amino)-2-(2,6-dixopiperidin-3-yl)isoindoline-1,3-dione]	
